Assay results: patent US20240174634A1, “Aldehyde Dehydrogenase Inhibitors and Their Therapeutic Use” (priority 2020, published 2024)

Columns and labels:
ALDH1A3 = biological target: T1, ALDH1A3 (Homo sapiens, UniProt P47895); test: Primary biochemical assay, NAD(P)H-Glo Detection System; set-up: His-tag; made in house; host or cells: E. coli Rosetta (DE3); conditions: 30 min pre-incubation, propionaldehyde and NAD at Km
T1 sequence (P47895 1-512): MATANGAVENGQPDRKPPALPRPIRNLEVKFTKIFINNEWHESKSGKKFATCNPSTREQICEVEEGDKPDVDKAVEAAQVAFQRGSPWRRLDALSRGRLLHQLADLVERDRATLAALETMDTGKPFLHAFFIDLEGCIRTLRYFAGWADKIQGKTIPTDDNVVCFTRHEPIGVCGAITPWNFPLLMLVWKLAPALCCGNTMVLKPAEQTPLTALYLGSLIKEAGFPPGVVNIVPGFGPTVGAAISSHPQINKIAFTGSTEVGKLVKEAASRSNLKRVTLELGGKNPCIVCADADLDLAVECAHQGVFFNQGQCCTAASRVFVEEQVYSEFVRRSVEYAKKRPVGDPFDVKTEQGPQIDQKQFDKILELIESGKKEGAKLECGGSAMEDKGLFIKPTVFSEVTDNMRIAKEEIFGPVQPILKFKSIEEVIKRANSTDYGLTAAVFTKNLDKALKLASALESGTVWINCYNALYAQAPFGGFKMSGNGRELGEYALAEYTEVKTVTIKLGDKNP
Description: (§1) Cloning: Open reading frames corresponding to the protein coding sequences of full length human ALDH1A1 (Uniprot ID P00352), ALDH1A2 (094788) and ALDH1A3 (P47895) were polymerase chain reaction (PCR) amplified from human cDNA and inserted into the multi-cloning sites of the commercially available (Novagen) E. coli expression vectors pET47b (ALDH1A1, EcoRI restriction site; ALDH1A2, BamHI and EcoRI sites) or pET28a (ALDH1A3, NdeI and BamHI sites), using standard molecular genetic techniques. Recombinant DNA products were sequence verified prior to use in expression studies.
(§2) Expression: Expression constructs were transformed into the E. coli strain Rosetta (DE3) (Merck) and individual colonies used to inoculate 10 mL lysogen broth (LB) medium supplemented with kanamycin and chloramphenicol at 50 μg/mL and 34 μg/mL, respectively. Cultures were grown to saturation overnight at 37° C., prior to being used to sub-inoculate fresh 1 L LB medium cultures (plus antibiotics, as before). 1 L cultures were grown at 37° C., 200 rpm, throughout the day until the optical density at 600 nm (OD600) reached ˜0.8, at which point growth temperature was reduced to 18° C. and 1 mM isopropyl β-d-1-thiogalacto pyranoside (IPTG) added to induce protein expression.
(§3) Cultures were left overnight (at least 16 h) under these conditions and the following day harvested by centrifugation (4000 G, 10 minutes). Culture supernatant was discarded and cell pellets stored at −80° C. until further processing.
(§4) Purification: Cell pellets were thawed on ice, re-suspended in Ni Affinity Buffer A (20 mM HEPES pH 7.5, 300 mM NaCl, 20 mM imidazole, 1 mM tris(2-carboxyethyl)phosphine (TCEP)) with protease inhibitors (cOmplete Ultra protease inhibitor, Roche), and lysed by sonication. Lysates were clarified by centrifugation at 18,000 G, 4° C., for 40 minutes, and loaded directly onto a pre-equilibrated (Buffer A) 5 mL HisTrap Fast Flow column (GE Healthcare) by way of an AKTA Fast Protein Liquid Chromatography (FPLC) system. The column was sequentially treated with 6 column volumes (CV) 100% Buffer A, 8 CV of 90% Buffer A:10% Buffer B (20 mM 4-(2-hydroxyethyl)-1-piperazineethanesulfonic acid (HEPES) pH 7.5, 300 mM NaCl, 500 mM imidazole, 1 mM TCEP) and finally a linear gradient from 10-70% Buffer B over 8 CV to elute recombinant His-tagged protein. Relevant fractions (as measured by 280 nm absorbance) collected during elution were pooled and subjected to further purification by size exclusion chromatography (Superdex 200 26/600, GE Healthcare, running buffer 20 mM 2-(carbamoylmethylamino)ethanesulfonic acid (ACES) pH 7.5, 1 mM TCEP). Relevant fractions from this step were pooled, aliquoted, and stored at −80° C. until required for compound profiling assays.
(§5) Materials: ALDH2 was purchased from Abnova. Tris(hydroxymethyl)aminomethane (Tris) was purchased from MP Biomedicals. TCEP, ethylenediaminetetraacetic acid (EDTA), propionaldehyde, DMSO and Tween-20 were purchased from Sigma. Nicotinamide adenine dinucleotide (NAD) was obtained from Abcam. The NAD(P)H-Glo™ Detection System was purchased from Promega. White, non-binding surface, 384 well plates were supplied by Corning (#3574).
(§6) Method: Inhibition of ALDH1A3 was assessed using the NAD(P)H-Glo™ Detection System (Cat. No. G9062) from Promega. This assay detects the production of NADH from NAD by ALDH1A3 via the coupled enzymatic conversion of a proluciferin reductase substrate to generate a luminescent signal. Inhibition of ALDH1A3 by small molecule inhibitors will result in reduction or abrogation of luminescence signal increase above background. Inhibition of ALDH1A1, ALDH1A2 and ALDH2 (selectivity assays) were assessed using the same assay.
(§7) Compounds were dosed into Corning 384 well assay plates using an Echo acoustic dispenser to give 10 point curves in a 3-fold dilution series. Compounds were dispensed from a 20 mM DMSO stock and initially screened at a top concentration of 20 μM (ALDH1A3) or 250 μM (ALDH1A1, ALDH1A2 & ALDH2). […]

ALDH1A1 = biological target: T2, ALDH1A1 (Homo sapiens, UniProt P00352); test: Selectivity biochemical assay, NAD(P)H-Glo Detection System
T2 construct: His-tag; made in house; host or cells: E. coli Rosetta (DE3)
T2 sequence (P00352 1-501): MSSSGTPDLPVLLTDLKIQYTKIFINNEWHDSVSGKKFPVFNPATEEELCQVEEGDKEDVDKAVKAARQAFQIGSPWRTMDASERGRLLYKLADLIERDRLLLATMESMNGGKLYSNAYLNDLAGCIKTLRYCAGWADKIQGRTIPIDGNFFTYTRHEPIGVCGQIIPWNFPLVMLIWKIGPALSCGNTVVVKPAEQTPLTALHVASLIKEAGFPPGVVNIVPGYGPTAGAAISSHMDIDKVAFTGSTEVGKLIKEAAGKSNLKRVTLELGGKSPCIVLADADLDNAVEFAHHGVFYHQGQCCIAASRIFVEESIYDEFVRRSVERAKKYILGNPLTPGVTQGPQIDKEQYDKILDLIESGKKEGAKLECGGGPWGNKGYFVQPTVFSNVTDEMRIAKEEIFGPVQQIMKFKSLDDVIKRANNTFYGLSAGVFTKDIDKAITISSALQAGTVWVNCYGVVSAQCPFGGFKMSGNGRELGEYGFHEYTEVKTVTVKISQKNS
Description: as §1, §2, §3, §4, §5, §6, §7

Structure (SMILES)	IC50 (ALDH1A3)	IC50 (ALDH1A1)
Cc1nn(C)cc1C1CCCN1CCOc1ccc2c(c1)CCC(=O)N2 (stereo not shown) [ALDHI-2015, 6-[2-[2-(1,3-dimethylpyrazol-4-yl)pyrrolidin-1-yl]ethoxy]-3,4-dihydro-1H-quinolin-2-one]	1000 to 10000 nM	≥ 100 µM
O=C1CCc2cc(OCCN3CCNCC3c3ccccc3)ccc2N1 (stereo not shown) [ALDHI-2036, 6-[2-(2-phenylpiperazin-1-yl)ethoxy]-3,4-dihydro-1H-quinolin-2-one]	1000 to 10000 nM	≥ 100 µM
Cn1cccc1C1CCCN1CCOc1ccc2c(c1)CCC(=O)N2 (stereo not shown) [ALDHI-2017, 6-[2-[2-(1-methylpyrrol-2-yl)pyrrolidin-1-yl]ethoxy]-3,4-dihydro-1H-quinolin-2-one]	1000 to 10000 nM	≥ 100 µM
Cc1onc(-c2cccc(F)c2)c1C(=O)Nc1ccc2c(c1)CCC(=O)N2 [ALDHI-1009, 3-(3-fluorophenyl)-5-methyl-N-(2-oxo-3,4-dihydro-1H-quinolin-6-yl)isoxazole-4-carboxamide]	1000 to 10000 nM	≥ 100 µM
O=C1CCc2cc(NC(=O)c3scnc3-c3cccc(F)c3)c(F)cc2N1 [ALDHI-1025, N-(7-fluoro-2-oxo-3,4-dihydro-1H-quinolin-6-yl)-4-(3-fluorophenyl)thiazole-5-carboxamide]	< 100 nM	≥ 100 µM
CN(CCOc1ccc2c(c1)CCC(=O)N2)Cc1cnn(C)c1 [ALDHI-3009, 6-[2-[methyl-[(1-methylpyrazol-4-yl)methyl]amino]ethoxy]-3,4-dihydro-1H-quinolin-2-one]	1000 to 10000 nM	10 to 100 µM
Cn1cc(C2CCCN2CCOc2ccc3c(c2)OCC(=O)N3)cn1 (stereo not shown) [ALDHI-2024, 7-[2-[2-(1-methylpyrazol-4-yl)pyrrolidin-1-yl]ethoxy]-4H-1,4-benzoxazin-3-one]	1000 to 10000 nM	≥ 100 µM
Cc1nc(-c2cccc(F)c2)c(C(=O)Nc2ccc3c(c2)CCC(=O)N3)s1 [ALDHI-1026, 4-(3-fluorophenyl)-2-methyl-N-(2-oxo-3,4-dihydro-1H-quinolin-6-yl)thiazole-5-carboxamide]	< 100 nM	≥ 100 µM
Cn1cc(CN(CCO)CCOc2ccc3c(c2)CCC(=O)N3)cn1 [ALDHI-3011, 6-[2-[2-hydroxyethyl-[(1-methylpyrazol-4-yl)methyl]amino]ethoxy]-3,4-dihydro-1H-quinolin-2-one]	1000 to 10000 nM	10 to 100 µM
CCCC1Oc2cc(OCCN3CCCC3c3cccc(F)c3)ccc2NC1=O (stereo not shown) [ALDHI-2047, 7-[2-[2-(3-fluorophenyl)pyrrolidin-1-yl]ethoxy]-2-propyl-4H-1,4-benzoxazin-3-one]	1000 to 10000 nM	≥ 100 µM
CC(C)C1Oc2cc(OCCN3CCCC3c3cccc(F)c3)ccc2NC1=O (stereo not shown) [ALDHI-2049, 7-[2-[2-(3-fluorophenyl)pyrrolidin-1-yl]ethoxy]-2-isopropyl-4H-1,4-benzoxazin-3-one]	1000 to 10000 nM	≥ 100 µM
O=C1CCc2cc(NC(=O)c3scnc3-c3cc(F)cc(F)c3)ccc2N1 [ALDHI-1024, 4-(3,5-difluorophenyl)-N-(2-oxo-3,4-dihydro-1H-quinolin-6-yl)thiazole-5-carboxamide]	< 100 nM	≥ 100 µM
CN(CCOc1ccc2c(c1)CCC(=O)N2)Cc1ccncc1 [ALDHI-3014, 6-[2-[methyl(4-pyridylmethyl)amino]ethoxy]-3,4-dihydro-1H-quinolin-2-one]	1000 to 10000 nM	≥ 100 µM
O=C1COc2cc(OCCN3CCCC3c3ccccn3)ccc2N1 (stereo not shown) [ALDHI-2025, 7-[2-[2-(2-pyridyl)pyrrolidin-1-yl]ethoxy]-4H-1,4-benzoxazin-3-one]	1000 to 10000 nM	≥ 100 µM
CS(=O)(=O)N1CCN(CCOc2ccc3c(c2)CCC(=O)N3)C(c2ccccc2)C1 (stereo not shown) [ALDHI-2046, 6-[2-(4-methylsulfonyl-2-phenyl-piperazin-1-yl)ethoxy]-3,4-dihydro-1H-quinolin-2-one]	1000 to 10000 nM	10 to 100 µM
CN(CCOc1ccc2c(c1)CCC(=O)N2)Cc1ccccn1 [ALDHI-3012, 6-[2-[methyl(2-pyridylmethyl)amino]ethoxy]-3,4-dihydro-1H-quinolin-2-one]	1000 to 10000 nM	≥ 100 µM
O=C1CCc2cc(NC(=O)c3scnc3-c3cccc(C(F)(F)F)c3)ccc2N1 [ALDHI-1015, N-(2-oxo-3,4-dihydro-1H-quinolin-6-yl)-4-[3-(trifluoromethyl)phenyl]thiazole-5-carboxamide]	1000 to 10000 nM	≥ 100 µM
